Measured values taken from patent US5962533A, “Hydroxy polyamines” (priority 1996, dated 1999).
pKi: −log10 of the molar value. Read-outs that look alike come from different tables or passages of the source.

Columns and labels:
[1] = test system: polyamine transport apparatus; assay: Competition with radiolabeled spermidine for uptake into L1210 cells (Ki); type: cell-based, Murine
Protocol: The same cell line was utilized to evaluate the tetraamines's competition with radiolabeled spermidine for the polyamine uptake apparatus (Ki). The Ki values here are the concentrations of drugs required to inhibit the uptake of radioactive spermidine transport by 50% (Table 1).
Uptake Determinations. The polyamine derivatives were studied for their ability to compete with [^3 H]SPD or [^14 C]SPD for uptake into L1210 leukemia cells in vitro. Cell suspensions were incubated in 1 ml of RPMI-1640 containing 1, 2, 4, 6, 8 and 10 μm radiolabeled SPD alone or with the additional presence of 10, 25 and 50 μm polyamine analogue for 20 minutes at 37° C. At the end of the incubation period, tubes were centrifuged at 900 g for 5 minutes at 0-4° C. The pellet was washed twice with 5 ml of cold RPMI-1640 containing 1 mm SPD, dissolved in 200 μl of 1N NaOH at 60° C. for 1 hour, and neutralized with 1N HCl. The material was transferred to a vial for scintillation counting.

[2] = Protonation state at physiological pH assumed from measured pKa values; type: physicochemical; details: physiological pH of 7.2
Protocol: All of the non-aromatic, non-trifluoroethylated tetraamines are largely in the form of the tetracation at the physiological pH of 7.2. The spermine analogues (13-16 and 34) and the homospermine analogues and homologues (18-26, 29 and 31-33) should be 85 and 97%, respectively, in the form of the tetracations. The norspermine analogues (9-12) should be at least 74% in the form of the tetracations. […] Thus, the calculation of atomic charges and conformational search of these analogues were carried out based on the anticipated protonated structures.

[3] = test system: castor oil-induced diarrhea; assay: Castor oil-induced diarrhea; type: in vivo, rat; details: rat; for stool output / diarrhea during 6 hour assay (FIG. 8): subcutaneous injection 30 minutes before castor oil 5 ml/kg
From the text: Castor Oil-Induced Diarrhea. Male Sprague-Dawley rats (350-400 g) were fasted overnight in hanging wire cages and allowed free access to water.

[4] = Acute toxicity, single intraperitoneal injection; details: mouse, in vivo, ip
[5] = tetraamine analogues, L1210 cells, radiolabeled spermidine uptake, read-out: Ki, actual (Table 1)
[6] = triamine analogues, bioassay results not in model data set, read-out: Ki, Actual (Table 2)

Row | SMILES | pKi [1, 5] | further results
1 | FC(F)(F)CNCCCNCCCCNCCCNCC(F)(F)F [FDESPM, N^1,N^12-bis(2,2,2-trifluoroethyl)spermine] | 3.55 | protonation state [2]: almost exclusively in the form of the internal dication
2 | CCNCCCNCCCNCC [DENSPD] | – | pKi [1, 6]: 3.70
3 | CCNCCCNCCCNCCCN [MENSPM, N^1 -ethylnorspermine] | 5.11 | –
4 | c1cc(CNCCCCNCc2ccncc2)ccn1 [PYR(4,4,4)] | < 3.30 | protonation state [2]: almost exclusively in the form of the internal dication
5 | CCNCCCNCCCNCCCNCC [DENSPM, Diethylnorspermine] | 4.77 | anti-diarrheal activity ([3]; 40 mg/kg): far less active than the homospermine compounds; stool output / diarrhea during 6 hour assay (FIG. 8) [3]: became diarrheal during the 6 hour assay; LD50 [4]: 325 mg/kg
6 | C(CCNC1CCNCC1)CNC1CCNCC1 [PIP(3,4,3)] | 4.22 | –
7 | CCNCCCNCCCCN [N^1 -MESPD] | – | pKi [1, 6]: 5.07
8 | CCNCCCCNCCCN [N^8 -MESPD] | – | pKi [1, 6]: 5.15
9 | NCCCCNCCCCNCCCCN [HSPM, homospermine] | – | stool output / diarrhea during 6 hour assay (FIG. 8) [3]: became diarrheal during the 6 hour assay
10 | CC(C)NCCCCNCCCCNCCCCNC(C)C [DIPHSPM] | 5.09 | –
11 | CCNCCCCNCCCCNCCCNCC [DE(3,4,4)] | 5.10 | –
12 | CCNCCCCNCCCCNCCCCN [MEHSPM, N^1 -ethylhomospermine] | 5.96 | –
13 | CCNCCCCNCCCCNCCCCNC(C)(C)C [ETBHSPM] | 5.52 | –
14 | CC(C)(C)NCCCCNCCCCNCCCCNC(C)(C)C [DTBHSPM] | 4.25 | –
15 | CCCNCCCNCCCNCCCNCCC [DPNSPM] | – | anti-diarrheal activity ([3]; 15 mg/kg): far less active than the homospermine compounds; stool output / diarrhea during 6 hour assay (FIG. 8) [3]: became diarrheal during the 6 hour assay
16 | CCNCCCCNCCCCCNCCCCNCC [DE(4,5,4)] | 5.22 | –
